According to the supplement of paper PMC11208160:

assay: recombinant barcode read abundance after kanamycin selection (control-corrected) (log10(CPM+1)); higher = more efficient recombination; sequences stand for … in AGTGCAGAGAAAATCGGCCAGTTTTCTCTGCCTGCAGTCCGCATGCCGT…AGATTTATGCAGCGGACTGCCTTTCTCCCAAAGTGATAAACCGGACAGTATCATGGACCGGTTTTCCCGGTAATCCGTATTTGCAAGGTTGGTTTCACT; site = the 11-nt target
Method in brief: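 Recombination efficiency in this pooled E. coli screen uses counts per million of barcodes at recombinant junctions, averaged and corrected against the control. The reported form is log10(CPM+1). Two replicates were plated on chloramphenicol/ampicillin LB agar as control and two on chloramphenicol/ampicillin/kanamycin with 0.1 mM IPTG.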
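Also: IS621 recombinase and bridge RNA in Escherichia coli cells.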

“CTAGGCCCTTGGGTTCTAACCTGTTGCCT (site CTAGGCCCTAG)” and “AATAGTGCTTGGGTTCTAACCTGTTGCCT (site ATTAGTGCTAG)” are within 0.2 log units of each other in “recombinant barcode read abundance (log10)” value: 0.184 for the first, 0.045 for the second.

First: AAGACCTCTTGGGTTCTAACCTGTTGCTT (site AAGACCTCTAA)
Second: AGTGCGGCTTGGGTTCTAACCTGTTGCCT (site GGTGCGGCTAG)
The “recombinant barcode read abundance (log10)” value of the first is higher: 1.76 for the first, 0.0363 for the second.

First: GAAAAGGCTTGGGTTCTAACCTGTTGCCT (site GAAAAGGCTAG)
Second: TCCCAGTCTTGGGTTCTAACCTGTTGCCT (site TCCCAGTCTAG)
The “recombinant barcode read abundance (log10)” value of the first is lower: 0.804 for the first, 1.82 for the second.

Compared with “ACGGATCCTTGGGTTCTAACCTGTTGCAT (site GTCCTATCTTG)”, “CTAGGCCCTTGGGTTCTAACCTGTTGCTT (site CTAGGCCCTAA)” is higher in “recombinant barcode read abundance (log10)” value: 0.0315 for the first, 0.563 for the second.

Going from “GAAGAGGCTTGGGTTCTAACCTGTTGCCA (site GAAGAGGCTTG)” to “GTCTATGCTTGGGTTCTAACCTGTTGCCT (site GCCTATGCTAG)”, the “recombinant barcode read abundance (log10)” value falls from 0.536 to 0.213.

Compared with “CTATTCCCTTGGGTTCTAACCTGTTGCTG (site CTATTCCCTCA)”, “ACGGCGCCTTGGGTTCTAACCTGTTGCCT (site AAGGCGCCTAG)” is lower in “recombinant barcode read abundance (log10)” value: 1.99 for the first, 0.0538 for the second.

“AGGTGTTCTTGGGTTCTAACCTGTTGCCT (site ATGCGTTCTAG)” and “CCTAAGACTTGGGTTCTAACCTGTTGCCG (site CCTAAGACTGG)” are within 0.2 log units of each other in “recombinant barcode read abundance (log10)” value: 0.018 for the first, 0.148 for the second.

“CAGTATTCTTGGGTTCTAACCTGTTGCCT (site CAGTAGTCTAG)” and “TTGGATACTTGGGTTCTAACCTGTTGCCA (site CATCTACCTCC)” are within 0.2 log units of each other in “recombinant barcode read abundance (log10)” value: 0.0496 for the first, 0.103 for the second.

“TATTAACCTTGGGTTCTAACCTGTTGCCT (site TATTATCCTAG)” and “CCAAGCCCTTGGGTTCTAACCTGTTGCCT (site CCAAGCCCTAG)” are within 0.2 log units of each other in “recombinant barcode read abundance (log10)” value: 0.0539 for the first, 0.142 for the second.

“CTAGCCGCTTGGGTTCTAACCTGTTGCTT (site AGCCTATCTTG)” and “CATAGACCTTGGGTTCTAACCTGTTGCAT (site CATAGGCCTAT)” are within 0.2 log units of each other in “recombinant barcode read abundance (log10)” value: 0.119 for the first, 0.0233 for the second.

First: TGGTCTACTTGGGTTCTAACCTGTTGCTT (site TGATCTACTAA)
Second: TAAGGGACTTGGGTTCTAACCTGTTGCTA (site CGCCCTTCTAG)
The “recombinant barcode read abundance (log10)” value of the first is lower: 0 for the first, 0.239 for the second.

“TCGAAGGCTTGGGTTCTAACCTGTTGCCT (site TCTAAGGCTAG)” and “AGTAAGACTTGGGTTCTAACCTGTTGCTA (site ACTAAGACTCA)” are within 0.2 log units of each other in “recombinant barcode read abundance (log10)” value: 0.0236 for the first, 0.154 for the second.

Going from “TTAGTAACTTGGGTTCTAACCTGTTGCCT (site CTAGTACCTAG)” to “ATGGATACTTGGGTTCTAACCTGTTGCCT (site ATGGATACTAG)”, the “recombinant barcode read abundance (log10)” value rises from 0.0115 to 2.26.

Going from “GAGGGCCCTTGGGTTCTAACCTGTTGCTG (site GAGGGCCCTCA)” to “GGTAGGACTTGGGTTCTAACCTGTTGCGG (site AGTAGGCCTCC)”, the “recombinant barcode read abundance (log10)” value falls from 2.8 to 0.0127.

Compared with “GATATAGCTTGGGTTCTAACCTGTTGCCT (site GATAGAGCTCG)”, “GACTCTCCTTGGGTTCTAACCTGTTGCTT (site GACTCTCCTAG)” is lower in “recombinant barcode read abundance (log10)” value: 0.54 for the first, 0.029 for the second.

“AGTAGACCTTGGGTTCTAACCTGTTGCTT (site AGTATACCTCA)” and “GTTGGGACTTGGGTTCTAACCTGTTGCCT (site GTTGGAACTAC)” are within 0.2 log units of each other in “recombinant barcode read abundance (log10)” value: 0.0353 for the first, 0.109 for the second.

Going from “CTTGACACTTGGGTTCTAACCTGTTGCCT (site CTGGACACTAG)” to “TAGAAGACTTGGGTTCTAACCTGTTGCTA (site TAGAAGACTCA)”, the “recombinant barcode read abundance (log10)” value rises from 0.236 to 0.487.

“TTCCAAACTTGGGTTCTAACCTGTTGCGG (site TTCCACACTCC)” and “TCTCGTCCTTGGGTTCTAACCTGTTGCTA (site AGCAACACTCT)” are within 0.2 log units of each other in “recombinant barcode read abundance (log10)” value: 0.193 for the first, 0.226 for the second.

“CGGTGTCCTTGGGTTCTAACCTGTTGCTT (site AGGTGTCCTAA)” and “GACAATGCTTGGGTTCTAACCTGTTGCAT (site ACGTGGACTTA)” are within 0.2 log units of each other in “recombinant barcode read abundance (log10)” value: 0.0515 for the first, 0.229 for the second.

First: CTACAGCCTTGGGTTCTAACCTGTTGCTT (site CTACAACCTAA)
Second: ACTAGTCCTTGGGTTCTAACCTGTTGCTT (site ACTAGTCCTAA)
The “recombinant barcode read abundance (log10)” value of the first is higher: 0.636 for the first, 0.294 for the second.

Compared with “GGGGCTTCTTGGGTTCTAACCTGTTGCTT (site GGGGCCTCTAA)”, “AGGTCGTCTTGGGTTCTAACCTGTTGCCT (site AGGTCGTCTAG)” is higher in “recombinant barcode read abundance (log10)” value: 0.762 for the first, 1.74 for the second.

Going from “GTAATCCCTTGGGTTCTAACCTGTTGCCG (site GTAATCCCTCG)” to “GTTACACCTTGGGTTCTAACCTGTTGCCT (site GTTACACCTAG)”, the “recombinant barcode read abundance (log10)” value falls from 1.76 to 0.848.

Compared with “CACTGGACTTGGGTTCTAACCTGTTGCCT (site CATTGGACTAG)”, “GGCTTCCCTTGGGTTCTAACCTGTTGCCT (site GGCCTCCCTAG)” is higher in “recombinant barcode read abundance (log10)” value: 0.286 for the first, 0.855 for the second.

Compared with “CAGGATGCTTGGGTTCTAACCTGTTGCCT (site CAGGATGCTAG)”, “TCCTAATCTTGGGTTCTAACCTGTTGCAT (site TCCTAATCTAT)” is lower in “recombinant barcode read abundance (log10)” value: 1.35 for the first, 0.607 for the second.

Going from “TTGCGAACTTGGGTTCTAACCTGTTGCAG (site GACGCGGCTAG)” to “ACACGAGCTTGGGTTCTAACCTGTTGCAG (site ACACGAGCTCT)”, the “recombinant barcode read abundance (log10)” value rises from 0.0589 to 1.3.

First: GCCACACCTTGGGTTCTAACCTGTTGCCT (site GCCATACCTAG)
Second: CACTTGACTTGGGTTCTAACCTGTTGCCT (site CACTTGACTAG)
The “recombinant barcode read abundance (log10)” value of the first is lower: 0.153 for the first, 1.2 for the second.

Compared with “TCCGATACTTGGGTTCTAACCTGTTGCGT (site TCCGATACTAC)”, “GACTACCCTTGGGTTCTAACCTGTTGCCT (site ATGCTGTCTTA)” is lower in “recombinant barcode read abundance (log10)” value: 1.64 for the first, 0.0344 for the second.

Compared with “TCGAACCCTTGGGTTCTAACCTGTTGCGA (site TCGAACCCTTC)”, “TGGCGTACTTGGGTTCTAACCTGTTGCCT (site TGGAGTACTAG)” is lower in “recombinant barcode read abundance (log10)” value: 0.927 for the first, 0 for the second.

Compared with “CTATCCACTTGGGTTCTAACCTGTTGCCT (site CTATCCACTAG)”, “CTGCAAGCTTGGGTTCTAACCTGTTGCCT (site CTCCAAGCTAG)” is lower in “recombinant barcode read abundance (log10)” value: 1.63 for the first, 0.218 for the second.

Compared with “AGCCTGCCTTGGGTTCTAACCTGTTGCCT (site AGCCTGGCTAG)”, “CGGCTCACTTGGGTTCTAACCTGTTGCCT (site CGGCTGACTAG)” is lower in “recombinant barcode read abundance (log10)” value: 0.549 for the first, 0.123 for the second.

“CATATCCCTTGGGTTCTAACCTGTTGCAT (site CTAATCCCTAT)” and “ACATGACCTTGGGTTCTAACCTGTTGCTT (site ACATGACCTAA)” are within 0.2 log units of each other in “recombinant barcode read abundance (log10)” value: 0.03 for the first, 0.223 for the second.

First: CTAATAGCTTGGGTTCTAACCTGTTGCCA (site CTAATAGCTTG)
Second: GAGGTAACTTGGGTTCTAACCTGTTGCAC (site GAGGTAACTGT)
The “recombinant barcode read abundance (log10)” value of the first is lower: 0.262 for the first, 1.66 for the second.

First: ATAACTACTTGGGTTCTAACCTGTTGCTT (site ATAACTACTAA)
Second: CCGCGTGCTTGGGTTCTAACCTGTTGCCT (site CGGCGTGCTAG)
The “recombinant barcode read abundance (log10)” value of the first is lower: 0.216 for the first, 0.523 for the second.
